Data as given in PMC12010322, “ReaxFF-Guided Optimization of VIRIP-Based HIV-1 Entry Inhibitors” (The Journal of Physical Chemistry. B, 2025).
Entries after “also recorded” stand apart in the source; their conditions may differ. Bridge positions count the residues as written; N and C are the ends. Ends that are not written are not given here. Peptide text beside a SMILES is read from it.

Tests used:
[1] = tested on: HIV-1 CH042 (clade C transmitted-founder); settings: TZM-bl cells, clade C CH042 TF HIV-1
Description: (§1) Figure 3 Size optimization of VIR-148. (A) TZM-bl reporter cells were incubated with increasing concentrations of VIR-148, VIR-102, or the indicated internally truncated itVIRIP derivatives. Cells were subsequently infected with HIV-1 NL4-3, and beta-galactosidase activity was determined 3 days after infection. (B) Hemolytic effect of indicated compounds on human erythrocytes. Each tile represents the area under the curve (AUC) for hemolytic activity. Full hemolysis is represented by a Triton-X control. (C) Amino acid alignment of the FP regions (red) of HIV-1 CH042, CH077, SIVmac239 and HIV-2 ROD10. (D) TZM-bl cells were incubated with increasing concentrations of VIR-148 or soVIRIP and subsequently infected with the HIV-1 CH042 or CH077, SIVmac239 or HIV-2 ROD10. […] The contribution of each amino acid to the binding interaction is indicated by color saturation. (F) Time-resolved ReaxFF-based molecular dynamics simulation of the interaction between soVIRIP and the HIV-1 FP. The trajectories are shown for VIR-148 (blue) and soVIRIP (orange). (G) Correlation between the free energy contribution of each amino acid of soVIRIP with the corresponding amino acid in VIR-148, based on ReaxFF simulations.
(§2) To determine infectious virus yield, 10,000 TZM-bl reporter cells/well were seeded in 96-well plates and infected with cell culture supernatants, under reduced 1% FCS conditions, in triplicates on the following day. Three days p.i., cells were lysed and β-galactosidase reporter gene expression was determined using the GalScreen Kit (Applied Bioscience) according to the manufacturer’s instructions with an Orion microplate luminometer (Berthold).
(§3) 10,000 TZM-bl reporter cells were seeded in 96-well plates in 100 μL of supplemented DMEM. The following day, the medium was changed to reduced 1% FCS-supplemented DMEM, and serially diluted peptide was added to the cells. The cells were subsequently infected with 10 μL of infectivity-normalized virus stocks. At 3 days postinfection, the supernatant was removed, and β-galactosidase activity was measured as previously described.

[2] = tested on: HIV-1 CH077 (clade B transmitted-founder); settings: TZM-bl cells, clade B CH077 TF HIV-1
Description: as §1, §2, §3

[3] = tested on: zebrafish embryos; experiment: Zebrafish embryo toxicity; settings: for toxicity in zebrafish embryos: embryos exposed from 24 hpf for 24 h, 60 embryos per group, two experiments, NRC-03 3 μM, abamectin 3.125 μM
Description: For in vivo studies, wild-type zebrafish embryos (Danio rerio) were dechorionated at 24 h post fertilization (hpf) using digestion with 1 mg/mL Pronase (Sigma) in E3 medium ([…]). In a 96-well plate, 3 embryos per well were exposed for 24 h to 100 μL of E3 containing VIRIP peptides at the concentrations indicated in the figures. Two independent assays were performed, each with 10 × 3 embryos. The peptide solvent (DMSO), diluted in E3, was used as negative control at the same amount as introduced by the peptide stock. […] Abamectin at a concentration of 3.125 μM was used as positive control for neurotoxicity.[49] At 48 hpf (after 24 h of incubation) embryos were scored in a stereomicroscope for signs of cytotoxicity (lysis and/or necrosis), developmental toxicity (delay and/or malformations) or cardiotoxicity (heart edema and/or reduced or absent circulation). Each embryo was also touched with a needle and reduced or absent touch response (escape movements) was evaluated as signs of neurotoxicity if and only if no signs of acute toxicity were present in the same embryo. Embryos were categorized within each of these toxicity categories into several classes of severity.[35]

[4] = tested on: SIVmac239; experiment: TZM-bl infection inhibition, SIVmac239; type: cell-based, SIVmac; settings: TZM-bl cells
Description: (§4) Figure 3 Size optimization of VIR-148. (A) TZM-bl reporter cells were incubated with increasing concentrations of VIR-148, VIR-102, or the indicated internally truncated itVIRIP derivatives. Cells were subsequently infected with HIV-1 NL4-3, and beta-galactosidase activity was determined 3 days after infection. (B) Hemolytic effect of indicated compounds on human erythrocytes. Each tile represents the area under the curve (AUC) for hemolytic activity. Full hemolysis is represented by a Triton-X control. (C) Amino acid alignment of the FP regions (red) of HIV-1 CH042, CH077, SIVmac239 and HIV-2 ROD10. […]
as §2
(§5) 10,000 TZM-bl reporter cells were seeded in 96-well plates in 100 μL of supplemented DMEM. […] At 3 days postinfection, the supernatant was removed, and β-galactosidase activity was measured as previously described.

[5] = tested on: HIV-2 ROD10; experiment: TZM-bl infection inhibition, HIV-2 ROD10; type: cell-based; settings: TZM-bl cells
Description: as §4, §2, §5

[6] = tested on: HIV-1 NL4-3
Text: To further define critical residues and to assess whether the loop structure is required for antiviral activity, we generated short peptides of six, seven or ten amino acids corresponding to the C- or N-termini of VIR-148, respectively. To determine their antiviral activity, we pretreated TZM-bl reporter cells with various concentrations of individual or mixed peptides and subsequently exposed them to the CXCR4-tropic HIV-1 NL4–3 strain. TZM-bl reporter cells are highly susceptible to HIV-1 infection and contain the β-galactosidase reporter gene under the control of the HIV-1 long terminal repeat.[34] Three days later, infection was quantified by β-galactosidase assay.
as §2, §3

Molecule: CC[C@H](C)[C@H](NC(=O)[C@H](C)NC(=O)[C@H](CCC(=O)O)NC(=O)[C@@H](N)CC(C)C)C(=O)N1CCC[C@H]1C(=O)N[C@H]1CSSC[C@@H](C(=O)N[C@H](C(=O)N[C@@H](C)C(=O)N[C@@H](Cc2ccccc2)C(=O)N[C@@H](CC(N)=O)C(=O)N[C@@H](CCCCN)C(=O)N2CCC[C@H]2C(=O)N[C@@H](Cc2ccccc2)C(=O)N[C@H](C(=O)N[C@@H](Cc2ccccc2)C(=O)O)C(C)C)C(C)C)NC(=O)[C@@H]2CCCN2C(=O)[C@@H]2CCCN2C(=O)[C@H]([C@@H](C)CC)NC(=O)[C@H](CO)NC1=O [VIR-148, reference compound] (H-LEAIPCSIPPCVAFNKPFVF-OH; disulfide 6-11)
- IC50 [1]: 37 nM
- IC50 [2]: 39 nM

Molecule: GRRKRKWLRRIGKGVKIIGG AALDHL-NH2 [NRC-03, reference compound]
- toxicity in zebrafish embryos [3]: exhibited the expected toxicities

Molecule: LEAIPVAFVF [soVIRIP]
- activity against SIVmac239 [4]: inactive
- activity against HIV-2 ROD10 [5]: inactive
- toxicity in zebrafish embryos [3]: did not display significant toxic effects; also recorded: nontoxic
- nontoxic concentration relative to IC50 against primary HIV-1 strains ([3]; zebrafish embryos): about 2,500 fold
- IC50 [1]: 37 nM
- IC50 [2]: 39 nM
- IC50 ([6]; NL4-3): 120 nM
- antiviral activity (in words) ([6]; TZM-bl reporter cells, HIV-1 NL4-3, β-galactosidase 3 days postinfection): maintained full antiviral activity
- higher antiviral activity compared to the original VIRIP ([6]; ratio of IC50 values): more than 100 fold

Molecule: abamectin [reference compound]
- toxicity in zebrafish embryos [3]: exhibited the expected toxicities
